# Results taken from US20260258035A1, “FIVE-MEMBERED AND SIX-MEMBERED NITROGEN-CONTAINING COMPOUND, AND INTERMEDIATE, PREPARATION METHOD AND USE THEREOF” (HANGZHOU SYNRX THERAPEUTICS BIOMEDICAL TECHNOLOGY CO., LTD., priority 2022, published 2026).
# Read-outs that look alike come from different tables or passages of the source.
# Tests used:
# HCC1806 = assay: Cell viability assay (CellTiter-Glo); format: cell-based, Human; settings: HCC1806, 7 days, CellTiter-Glo, read-out: IC50 (nM) in cell viability assay
# PARG = PARG (Homo sapiens, UniProt Q86W56); assay: Biochemical assay (PARG, TFMU-ADPr substrate)
# Chain of PARG (Q86W56 whole entry): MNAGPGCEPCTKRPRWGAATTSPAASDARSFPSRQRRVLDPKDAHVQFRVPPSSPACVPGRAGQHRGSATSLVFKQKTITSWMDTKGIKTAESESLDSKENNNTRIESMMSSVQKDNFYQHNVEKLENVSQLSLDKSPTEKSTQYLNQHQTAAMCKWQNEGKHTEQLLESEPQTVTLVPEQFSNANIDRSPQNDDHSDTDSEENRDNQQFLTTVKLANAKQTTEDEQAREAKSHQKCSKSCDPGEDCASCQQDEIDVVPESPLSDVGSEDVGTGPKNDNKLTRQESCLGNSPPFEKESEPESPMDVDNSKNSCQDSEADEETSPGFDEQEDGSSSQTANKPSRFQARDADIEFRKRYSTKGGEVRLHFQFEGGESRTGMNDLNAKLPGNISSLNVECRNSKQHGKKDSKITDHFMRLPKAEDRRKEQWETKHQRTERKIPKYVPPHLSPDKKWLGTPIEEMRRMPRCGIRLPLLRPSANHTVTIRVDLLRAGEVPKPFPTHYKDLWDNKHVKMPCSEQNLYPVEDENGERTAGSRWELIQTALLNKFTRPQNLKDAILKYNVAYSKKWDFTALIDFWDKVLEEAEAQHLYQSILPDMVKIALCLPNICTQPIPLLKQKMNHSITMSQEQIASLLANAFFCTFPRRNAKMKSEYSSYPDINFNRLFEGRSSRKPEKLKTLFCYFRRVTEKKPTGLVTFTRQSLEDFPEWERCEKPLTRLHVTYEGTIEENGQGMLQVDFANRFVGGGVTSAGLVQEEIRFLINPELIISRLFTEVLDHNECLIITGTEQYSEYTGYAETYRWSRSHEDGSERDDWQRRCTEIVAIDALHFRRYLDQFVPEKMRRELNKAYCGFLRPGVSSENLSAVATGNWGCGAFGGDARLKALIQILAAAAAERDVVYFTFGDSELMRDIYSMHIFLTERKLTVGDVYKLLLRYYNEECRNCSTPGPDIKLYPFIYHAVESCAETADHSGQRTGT
Compound,"IC50 (HCC1806; Homo sapiens, HCC1806, 168 h)","IC50 (PARG; PARG, TFMU-ADPr substrate)",IC50 (HCC1806),"IC50 (PARG; 4 nM PARG, 66.2 uM TFMU-ADPr, 3 min at room temperature)"
"CC1(NS(=O)(=O)c2cc(N3CCN(C(=O)C4CCOC4)CC3)c3cnc(-c4nnc(C(F)(F)F)s4)n3c2)CC1 (centres unmarked) [Example 293, N-(1-methylcyclopropyl)-8-(4-(tetrahydrofuran-3-carbonyl)piperazin-1-yl)-3-(5-(trifluoromethyl)-1,3,4-thiadiazol-2-yl)imidazo[1,5-a]pyridine-6-sulfonamide]",97 nM,9.12 nM,,
"N#CC1(NS(=O)(=O)c2cc(N3CCC(n4ccnn4)CC3)c3cnc(-c4nnc(C(F)(F)F)s4)n3c2)CC1 [Example 218, 8-(4-(1H-1,2,3-triazol-1-yl)piperidin-1-yl)-N-(1-cyanocyclopropyl)-3-(5-(trifluoromethyl)-1,3,4-thiadiazol-2-yl)imidazo[1,5-a]pyridine-6-sulfonamide]",1050 nM,39.8 nM,,
"N#CC1(NS(=O)(=O)c2cc(N3CCN(C(=O)c4ccno4)CC3)c3cnc(-c4nnc(C(F)(F)F)s4)n3c2)CC1 [Example 255, N-(1-cyanocyclopropyl)-8-(4-(isoxazole-5-carbonyl)piperazin-1-yl)-3-(5-(trifluoromethyl)-1,3,4-thiadiazol-2-yl)imidazo[1,5-a]pyridine-6-sulfonamide]",420 nM,17.4 nM,,
"N#CC1(NS(=O)(=O)c2cc(N3CCN(C(=O)C4(N)CC4)CC3)c3cnc(-c4nnc(C(F)(F)F)s4)n3c2)CC1 [Example 274, 8-(4-(1-aminocyclopropane-1-carbonyl)piperazin-1-yl)-N-(1-cyanocyclopropyl)-3-(5-(trifluoromethyl)-1,3,4-thiadiazol-2-yl)imidazo[1,5-a]pyridine-6-sulfonamide]",700 nM,41.7 nM,,
"CC1(NS(=O)(=O)c2cc(N3CCN(C(=O)C4(C)CNC4)CC3)c3cnc(-c4nnc(C(F)(F)F)s4)n3c2)CC1 [Example 313, 8-(4-(3-methylazetidine-3-carbonyl)piperazin-1-yl)-N-(1-methylcyclopropyl)-3-(5-(trifluoromethyl)-1,3,4-thiadiazol-2-yl)imidazo[1,5-a]pyridine-6-sulfonamide]",2050 nM,1.64 nM,,
"CC(C)OC1(C(=O)N2CCN(c3cc(S(=O)(=O)NC4(C)CC4)cn4c(-c5nnc(C(F)(F)F)s5)ncc34)CC2)CC1 [Example 202, 8-(4-(1-isopropoxycyclopropane-1-carbonyl)piperazin-1-yl)-N-(1-methylcyclopropyl)-3-(5-(trifluoromethyl)-1,3,4-thiadiazol-2-yl)imidazo[1,5-a]pyridine-6-sulfonamide]",133 nM,1.16 nM,,
"COC(C)C(=O)N1CCN(c2cc(S(=O)(=O)NC3(C#N)CC3)cn3c(-c4nnc(C(F)(F)F)s4)ncc23)CC1 (centres unmarked) [Example 260, N-(1-cyanocyclopropyl)-8-(4-(2-methoxypropanoyl)piperazin-1-yl)-3-(5-(trifluoromethyl)-1,3,4-thiadiazol-2-yl)imidazo[1,5-a]pyridine-6-sulfonamide]",250 nM,28.8 nM,,
"COC1(C(=O)N2CCN(c3c(F)c(S(=O)(=O)NC4CC4)cn4c(-c5nnc(C(F)(F)F)s5)ncc34)CC2)CC1 [Example 195, N-cyclopropyl-7-fluoro-8-(4-(1-methoxycyclopropane-1-carbonyl)piperazin-1-yl)-3-(5-(trifluoromethyl)-1,3,4-thiadiazol-2-yl)imidazo[1,5-a]pyridine-6-sulfonamide]",666 nM,5.62 nM,,
"CC(C)C(=O)N1CCN(c2cc(S(=O)(=O)N[C@H]3C[C@H]3F)cn3c(-c4nnc(C(F)F)s4)ncc23)CC1 [Example 82, 3-(5-(difluoromethyl)-1,3,4-thiadiazol-2-yl)-N-((1S,2R)-2-fluorocyclopropyl)-8-(4-isobutyrylpiperazin-1-yl)imidazo[1,5-a]pyridine-6-sulfonamide]",5000 to 30000 nM,209 nM,7050 nM,100 to 500 nM
"COC1(C(=O)N2CCN(c3cc(S(=O)(=O)NC4(C)COC4)cn4c(-c5nnc(C(F)(F)F)s5)ncc34)CC2)CC1 [Example 177, 8-(4-(1-methoxycyclopropane-1-carbonyl)piperazin-1-yl)-N-(3-methyloxetan-3-yl)-3-(5-(trifluoromethyl)-1,3,4-thiadiazol-2-yl)imidazo[1,5-a]pyridine-6-sulfonamide]",15 nM,0.54 nM,,

# Continued by falling IC50 (HCC1806; Homo sapiens, HCC1806, 168 h), values first:
"IC50 (HCC1806; Homo sapiens, HCC1806, 168 h)","IC50 (PARG; PARG, TFMU-ADPr substrate)",IC50 (HCC1806),"IC50 (PARG; 4 nM PARG, 66.2 uM TFMU-ADPr, 3 min at room temperature)",Compound
8000 nM,120 nM,,,"N#CC1(NS(=O)(=O)c2cc(N3CC[C@@H](O)C3)c3cnc(-c4nnc(C(F)(F)F)s4)n3c2)CC1 [Example 230, (R)-N-(1-cyanocyclopropyl)-8-(3-hydroxypyrrolidin-1-yl)-3-(5-(trifluoromethyl)-1,3,4-thiadiazol-2-yl)imidazo[1,5-a]pyridine-6-sulfonamide]"
6440 nM,692 nM,,,"N#CC1(NS(=O)(=O)c2cc(N3CCNC(=O)C3)c3cnc(-c4nnc(C(F)(F)F)s4)n3c2)CC1 [Example 248, N-(1-cyanocyclopropyl)-8-(3-oxopiperazin-1-yl)-3-(5-(trifluoromethyl)-1,3,4-thiadiazol-2-yl)imidazo[1,5-a]pyridine-6-sulfonamide]"
1580 nM,2.15 nM,,,"CC1(NS(=O)(=O)c2cc(N3CCN(C(=O)c4c[nH]cn4)CC3)c3cnc(-c4nnc(C(F)F)s4)n3c2)CC1 [Example 340, 8-(4-(1H-imidazole-4-carbonyl)piperazin-1-yl)-3-(5-(difluoromethyl)-1,3,4-thiadiazol-2-yl)-N-(1-methylcyclopropyl)imidazo[1,5-a]pyridine-6-sulfonamide]"
1000 nM,57.5 nM,,,"N#CC1(NS(=O)(=O)c2cc(N3CCN(C(=O)CCC(=O)O)CC3)c3cnc(-c4nnc(C(F)(F)F)s4)n3c2)CC1 [Example 253, 4-(4-(6-(N-(1-cyanocyclopropyl)sulfamoyl)-3-(5-(trifluoromethyl)-1,3,4-thiadiazol-2-yl)imidazo[1,5-a]pyridin-8-yl)piperazin-1-yl)-4-oxobutanoic acid]"
929 nM,83.2 nM,,,"CC(C)C(=O)N1CCN(c2cc(S(=O)(=O)NC3CC3)cn3c(-c4nnc(C(F)(F)F)s4)ncc23)CC1 [Example 210, N-cyclopropyl-8-(4-isobutyrylpiperazin-1-yl)-3-(5-(trifluoromethyl)-1,3,4-thiadiazol-2-yl)imidazo[1,5-a]pyridine-6-sulfonamide]"
580 nM,3.8 nM,,,"N#CC1(NS(=O)(=O)c2cc(C3CCN(C(=O)C4(O)CC4)CC3)c3cnc(-c4nnc(C(F)(F)F)s4)n3c2)CC1 [Example 372, N-(1-cyanocyclopropyl)-8-(1-(1-hydroxycyclopropane-1-carbonyl)piperidin-4-yl)-3-(5-(trifluoromethyl)-1,3,4-thiadiazol-2-yl)imidazo[1,5-a]pyridine-6-sulfonamide]"
455 nM,3.98 nM,,,"CC1(NS(=O)(=O)c2cc(N3CCC(O)C(O)C3)c3cnc(-c4nnc(C(F)F)s4)n3c2)CC1 (centres unmarked) [Example 349, 3-(5-(difluoromethyl)-1,3,4-thiadiazol-2-yl)-8-(3,4-dihydroxypiperidin-1-yl)-N-(1-methylcyclopropyl)imidazo[1,5-a]pyridine-6-sulfonamide]"
354 nM,6.31 nM,,,"Cc1ncn(CC(=O)N2CCN(c3cc(S(=O)(=O)NC4(C)CC4)cn4c(-c5nnc(C(F)(F)F)s5)ncc34)CC2)n1 [Example 334, 8-(4-(2-(3-methyl-1H-1,2,4-triazol-1-yl)acetyl)piperazin-1-yl)-N-(1-methylcyclopropyl)-3-(5-(trifluoromethyl)-1,3,4-thiadiazol-2-yl)imidazo[1,5-a]pyridine-6-sulfonamide]"
261 nM,15.8 nM,,,"COCC1CN(c2cc(S(=O)(=O)NC3(C)COC3)cn3c(-c4nnc(C(F)(F)F)s4)ncc23)CCN1 (centres unmarked) [Example 358, 8-(3-(methoxymethyl)piperazin-1-yl)-N-(3-methyloxetan-3-yl)-3-(5-(trifluoromethyl)-1,3,4-thiadiazol-2-yl)imidazo[1,5-a]pyridine-6-sulfonamide]"
226 nM,3.16 nM,,,"CC1(NS(=O)(=O)c2cc(N3CCN(C(=O)c4ncc[nH]4)CC3)c3cnc(-c4nnc(C(F)F)s4)n3c2)CC1 [Example 339, 8-(4-(1H-imidazole-2-carbonyl)piperazin-1-yl)-3-(5-(difluoromethyl)-1,3,4-thiadiazol-2-yl)-N-(1-methylcyclopropyl)imidazo[1,5-a]pyridine-6-sulfonamide]"
213 nM,12.6 nM,,,"COCC1CN(c2cc(S(=O)(=O)NC3(C)COC3)cn3c(-c4nnc(C(F)(F)F)s4)nc(Cl)c23)CCN1 (centres unmarked) [Example 135, 1-chloro-8-(3-(methoxymethyl)piperazin-1-yl)-N-(3-methyloxetan-3-yl)-3-(5-(trifluoromethyl)-1,3,4-thiadiazol-2-yl)imidazo[1,5-a]pyridine-6-sulfonamide]"
112 nM,3.55 nM,,,"C[C@H]1CN(c2cc(S(=O)(=O)NC3(C)COC3)cn3c(-c4nnc(C(F)(F)F)s4)cnc23)C[C@H](C)N1 [Example 189, 8-((3S,5S)-3,5-dimethylpiperazin-1-yl)-N-(3-methyloxetan-3-yl)-3-(5-(trifluoromethyl)-1,3,4-thiadiazol-2-yl)imidazo[1,2-a]pyridine-6-sulfonamide]"
80 nM,8.71 nM,,,"CC#CC(C)(O)C(=O)N1CCN(c2cc(S(=O)(=O)NC3(C#N)CC3)cn3c(-c4nnc(C(F)(F)F)s4)ncc23)CC1 (centres unmarked) [Example 256, N-(1-cyanocyclopropyl)-8-(4-(2-hydroxy-2-methylpent-3-ynoyl)piperazin-1-yl)-3-(5-(trifluoromethyl)-1,3,4-thiadiazol-2-yl)imidazo[1,5-a]pyridine-6-sulfonamide]"
12.7 nM,0.16 nM,,,"[2H]C([2H])([2H])OC1(C(=O)N2CCN(c3cc(S(=O)(=O)NC4(C)COC4)cn4c(-c5nnc(C(F)(F)F)s5)nc(Cl)c34)CC2)CC1 [Example 129, 1-chloro-8-(4-(1-(methoxy-d3)cyclopropane-1-carbonyl)piperazin-1-yl)-N-(3-methyloxetan-3-yl)-3-(5-(trifluoromethyl)-1,3,4-thiadiazol-2-yl)imidazo[1,5-a]pyridine-6-sulfonamide]"
